Experiment [1] has as its target T1, AR (L702H) in LNCaP cells (Homo sapiens, UniProt P10275, L702H/T878A).
T1 construct: engineered to introduce the mutation L702H into the AR gene using CRISPR/Cas9; endogenous in cells; host or cells: LNCaP cells edited by CRISPR/Cas9 at the AR gene
In words: LNCaP Androgen Receptor L702H Imaging Assay (LNCaP cells engineered by CRISPR/Cas9). The format is cell-based. The conditions noted are these: LNCaP cells with AR L702H mutation, 24 h incubation; for DC50: concentration giving 50% of maximum degradation of AR (L702H) per curve fit; for Dmax: LNCaP; for Dmax / LNCaP AR (L702H) Degradation Dmax: maximum degradation observed, normalized as % of positive control. In short, it runs like this:
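CRISPR-engineered LNCaP cells carrying AR L702H were treated 24 h at 37 °C with a 12-point compound dose response (0.3% DMSO), then fixed and immunostained for AR with DRAQ5 nuclear counterstain. Nuclear AR was quantified by imaging, normalized to positive control; DC50 and Dmax came from Hill or bell-shaped fits.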

Experiment [2] concerns the target T2, AR (AR-full length) in LNCaP cells (Homo sapiens, UniProt P10275, T878A).
T2 construct: the prostate cancer cell line LNCaP (expressing AR-full length); endogenous in cells; host or cells: LNCaP
In words: LNCaP Androgen Receptor Imaging Assay (immunofluorescence of endogenous nuclear AR). The format is cell-based. The conditions noted are these: 24 h incubation; for DC50: concentration giving 50% of maximum degradation of AR per curve fit, single experiment or average of two or more; for Dmax: LNCaP; for Dmax / LNCaP AR Degradation Dmax: maximum degradation observed, normalized as % of positive control (prior art AR PROTAC at 3 μM). In short, it runs like this: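 LNCaP cells (12,000/well) received a 12-point compound dose series (0.3% DMSO) for 24 h at 37° C., then were PFA-fixed and stained for AR (AR441) and nuclei (DRAQ5). Nuclear AR was quantified by imaging, normalized to a 3 μM AR PROTAC control; DC50 and Dmax came from Hill/bell curve fits.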

The structures appear in SMILES notation.

T1 sequence (P10275 whole entry L702H/T878A): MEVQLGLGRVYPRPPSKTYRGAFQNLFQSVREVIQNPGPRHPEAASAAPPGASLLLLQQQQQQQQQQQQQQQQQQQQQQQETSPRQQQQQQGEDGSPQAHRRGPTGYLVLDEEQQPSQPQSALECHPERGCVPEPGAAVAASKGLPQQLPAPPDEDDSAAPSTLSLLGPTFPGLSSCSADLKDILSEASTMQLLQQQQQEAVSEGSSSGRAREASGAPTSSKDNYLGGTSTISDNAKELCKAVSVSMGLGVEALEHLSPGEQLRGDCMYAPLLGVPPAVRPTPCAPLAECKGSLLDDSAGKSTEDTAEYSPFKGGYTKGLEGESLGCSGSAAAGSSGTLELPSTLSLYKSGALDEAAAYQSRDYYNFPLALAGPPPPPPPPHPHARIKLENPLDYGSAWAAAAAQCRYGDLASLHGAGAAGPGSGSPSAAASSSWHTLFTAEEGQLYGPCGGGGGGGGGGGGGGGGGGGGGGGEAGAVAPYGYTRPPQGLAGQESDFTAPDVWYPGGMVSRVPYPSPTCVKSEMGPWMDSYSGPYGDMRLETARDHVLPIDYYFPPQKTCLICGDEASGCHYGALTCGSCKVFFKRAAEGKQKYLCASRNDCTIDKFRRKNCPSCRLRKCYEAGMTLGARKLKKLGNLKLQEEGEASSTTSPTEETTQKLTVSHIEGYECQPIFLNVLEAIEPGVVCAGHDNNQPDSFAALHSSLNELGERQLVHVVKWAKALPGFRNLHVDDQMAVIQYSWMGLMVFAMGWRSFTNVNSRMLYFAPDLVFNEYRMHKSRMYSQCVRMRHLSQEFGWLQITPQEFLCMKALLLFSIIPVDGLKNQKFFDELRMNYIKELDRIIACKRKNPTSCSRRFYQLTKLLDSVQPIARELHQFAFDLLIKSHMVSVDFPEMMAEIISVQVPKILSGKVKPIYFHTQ
T1 sequence (Q96SW2 whole entry partner): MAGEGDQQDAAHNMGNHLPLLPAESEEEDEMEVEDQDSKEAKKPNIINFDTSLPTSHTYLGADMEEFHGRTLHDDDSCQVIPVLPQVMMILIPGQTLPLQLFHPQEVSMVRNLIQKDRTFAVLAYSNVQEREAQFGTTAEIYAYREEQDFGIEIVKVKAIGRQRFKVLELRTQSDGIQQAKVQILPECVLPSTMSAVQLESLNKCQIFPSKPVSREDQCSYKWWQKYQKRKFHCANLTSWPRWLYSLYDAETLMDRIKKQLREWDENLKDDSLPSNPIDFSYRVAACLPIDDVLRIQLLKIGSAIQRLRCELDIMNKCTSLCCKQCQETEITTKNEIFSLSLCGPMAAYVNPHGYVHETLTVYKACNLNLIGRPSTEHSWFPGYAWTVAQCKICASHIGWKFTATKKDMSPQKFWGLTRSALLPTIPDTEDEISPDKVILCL
T2 sequence (P10275 whole entry T878A): as the sequence (P10275 whole entry L702H/T878A) above, with H702L counted along it
T2 sequence (Q96SW2 whole entry partner): as the sequence (Q96SW2 whole entry partner) above

Broadly, the DC50 is the concentration at which degradation of the target reaches its halfway point. Broadly, the Dmax is the greatest extent of degradation seen. For the molecule `N#Cc1n[nH]c2c(N3CCC[C@@H](c4ccc(N5CCC(CN6CCN(c7ccc8c(c7)CN(C7CCC(=O)NC7=O)C8=O)CC6)CC5)cc4)C3)ccc(F)c12` (stereo partly drawn) [Example 133, 7-[(3S)-3-{4-[4-({4-[2-(2,6-Dioxopiperidin-3-yl)-1-oxo-2,3-dihydro-1H-isoindol-5-yl]piperazin-1-yl}methyl)piperidin-1-yl]phenyl}piperidin-1-yl]-4-fluoro-1H-indazole-3-carbonitrile], the DC50 in experiment [1] was 8 nM; in experiment [2] it was 4 nM. The Dmax in experiment [1] was 97%; in experiment [2] it was 103%.
On the same counts, the results for `Cn1c(C2CCN(CC3CCN(c4ccc(C5CCN(c6ccc(Cl)c7c(C#N)c[nH]c67)CC5)cc4)CC3)CC2)cc2ncc(N3CCC(=O)NC3=O)cc21` [Example 103, 4-Chloro-7-(4-{4-[4-({4-[6-(2,4-dioxo-1,3-diazinan-1-yl)-1-methyl-1H-pyrrolo[3,2-b]pyridin-2-yl]piperidin-1-yl}methyl)piperidin-1-yl]phenyl}piperidin-1-yl)-1H-indole-3-carbonitrile] are 7 nM, 8 nM, 107% and 85%.
The matching figures for `N#Cc1c[nH]c2c(N3CCC(NC(=O)c4ccc(N5CCC(CN6CCC(n7ccc8c(N9CCC(=O)NC9=O)cccc87)CC6)CC5)cc4F)CC3)ccc(Cl)c12` [Example 160, N-[1-(4-Chloro-3-cyano-1H-indol-7-yl)piperidin-4-yl]-4-[4-({4-[4-(2,4-dioxo-1,3-diazinan-1-yl)-1H-indol-1-yl]piperidin-1-yl}methyl)piperidin-1-yl]-2-fluorobenzamide]: 4 nM, 1 nM, 105% and 104%.
The matching figures for `N#Cc1c[nH]c2c(N3CCC[C@H](c4ccc(N5CCC(CN6CCN(c7ccc8c(c7)CN(C7CCC(=O)NC7=O)C8=O)CC6)CC5)cc4)C3)ccc(Cl)c12` (stereo partly drawn) [Example 21, 4-Chloro-7-[(3R)-3-{4-[4-({4-[2-(2,6-dioxopiperidin-3-yl)-1-oxo-2,3-dihydro-1H-isoindol-5-yl]piperazin-1-yl}methyl)piperidin-1-yl]phenyl}piperidin-1-yl]-1H-indole-3-carbonitrile]: 7 nM, 8 nM, 103% and 92%.
With `N#Cc1c[nH]c2c(N3CCC[C@@H](c4ccc(N5CCC(CN6CCN(c7ccc8c(c7)CN(C7CCC(=O)NC7=O)C8=O)CC6)CC5)cc4)C3)ccc(Cl)c12` (stereo partly drawn) [Example 12, 4-Chloro-7-[(3S)-3-{4-[4-({4-[2-(2,6-dioxopiperidin-3-yl)-1-oxo-2,3-dihydro-1H-isoindol-5-yl]piperazin-1-yl}methyl)piperidin-1-yl]phenyl}piperidin-1-yl]-1H-indole-3-carbonitrile], in experiment [1], the DC50 was found to be 12 nM and the Dmax amounted to 97%. Also, in experiment [2], half-maximal degradation (DC50) was put at 6 nM and the Dmax worked out at 95%.
Regarding `N#Cc1c[nH]c2c(N3CCC(c4ccc(N5CCC(CN6CCN(c7ccc8c(c7)CN(C7CCC(=O)NC7=O)C8=O)CC6)CC5)cc4)CC3)ccc(F)c12` (single isomer, unassigned) [Example 4, 7-(4-{4-[4-({4-[2-(2,6-Dioxopiperidin-3-yl)-1-oxo-2,3-dihydro-1H-isoindol-5-yl]piperazin-1-yl}methyl)piperidin-1-yl]phenyl}piperidin-1-yl)-4-fluoro-1H-indole-3-carbonitrile], in experiment [1], the DC50 was 5 nM and the “LNCaP AR (L702H) Degradation Dmax” value is 106%. Further, in experiment [2], it took 6 nM to reach half-maximal degradation (DC50) and the “LNCaP AR Degradation Dmax” value was 96%.
Consider `N#Cc1c[nH]c2c(N3CCC(c4ccc(N5CCC(CN6CCN(c7cc8c(cc7F)C(=O)N(C7CCC(=O)NC7=O)C8=O)CC6)CC5)cc4)CC3)ccc(Cl)c12` (stereo not drawn) [Example 51, 4-Chloro-7-(4-{4-[4-({4-[2-(2,6-dioxopiperidin-3-yl)-6-fluoro-1,3-dioxo-2,3-dihydro-1H-isoindol-5-yl]piperazin-1-yl}methyl)piperidin-1-yl]phenyl}piperidin-1-yl)-1H-indole-3-carbonitrile], for which, in experiment [1], it took 71 nM to reach half-maximal degradation (DC50) and the Dmax was 96%. In addition, in experiment [2], half-maximal degradation (DC50) was put at 37 nM and the Dmax is 101%.
Consider `N#Cc1c[nH]c2c(N3CCCC(NC(=O)c4ccc(N5CCC(CN6CCN(c7ccc8c(c7)CN(C7CCC(=O)NC7=O)C8=O)CC6)CC5)cn4)C3)ccc(Cl)c12` (single isomer, unassigned) [Example 180, N-[(3R*)-1-(4-Chloro-3-cyano-1H-indol-7-yl)piperidin-3-yl]-5-[4-({4-[2-(2,6-dioxopiperidin-3-yl)-1-oxo-2,3-dihydro-1H-isoindol-5-yl]piperazin-1-yl}methyl)piperidin-1-yl]pyridine-2-carboxamide], for which, in experiment [1], half-maximal degradation (DC50) was put at 2 nM and the Dmax stood at 88%. In experiment [2], half-maximal degradation (DC50) was put at 3 nM and the Dmax was 94%.
On the same counts, the results for `Cn1c(=O)n(C2CCC(=O)NC2=O)c2cccc(N3CCN(CC4CCN(c5ccc(C(=O)NC6CCN(c7ccc(Cl)c8c(C#N)c[nH]c78)CC6)c(F)c5)CC4)CC3)c21` (stereo not drawn) [Example 157, N-[1-(4-Chloro-3-cyano-1H-indol-7-yl)piperidin-4-yl]-4-[4-({4-[1-(2,6-dioxopiperidin-3-yl)-3-methyl-2-oxo-2,3-dihydro-1H-benzimidazol-4-yl]piperazin-1-yl}methyl)piperidin-1-yl]-2-fluorobenzamide] are 4 nM, 96%, 3 nM and 97%.
The matching figures for `Cc1cc2c(N3CCC(=O)NC3=O)cccc2n1C1CCN(CC2CCN(c3ccc([C@@H]4CCCN(c5ccc(Cl)c6c(C#N)c[nH]c56)C4)cc3)CC2)CC1` [Example 114, 4-Chloro-7-[(3S)-3-{4-[4-({4-[4-(2,4-dioxo-1,3-diazinan-1-yl)-2-methyl-1H-indol-1-yl]piperidin-1-yl}methyl)piperidin-1-yl]phenyl}piperidin-1-yl]-1H-indole-3-carbonitrile]: 31 nM, 101%, 19 nM and 101%.
On the same counts, the results for `Cc1ccc(N2CCC(NC(=O)c3ccc(N4CCC(CN5CCN(c6ccc7c(c6)CN(C6CCC(=O)NC6=O)C7=O)CC5)CC4)cn3)CC2)c2[nH]cc(C#N)c12` (stereo not drawn) [Example 172, N-[1-(3-Cyano-4-methyl-1H-indol-7-yl)piperidin-4-yl]-5-[4-({4-[2-(2,6-dioxopiperidin-3-yl)-1-oxo-2,3-dihydro-1H-isoindol-5-yl]piperazin-1-yl}methyl)piperidin-1-yl]pyridine-2-carboxamide] are 4 nM, 94%, 1 nM and 94%.
`COc1cc(N2CCN(CCCCOc3ccc(C4CCN(c5ccc(C)c6c(C#N)c[nH]c56)CC4)cc3)CC2)cc2c1C(=O)N(C1CCC(=O)NC1=O)C2` (stereo not drawn) [Example 27, 7-{4-[4-(4-{4-[2-(2,6-Dioxopiperidin-3-yl)-7-methoxy-1-oxo-2,3-dihydro-1H-isoindol-5-yl]piperazin-1-yl}butoxy)phenyl]piperidin-1-yl}-4-methyl-1H-indole-3-carbonitrile]: in experiment [1], the DC50 was found to be 27 nM and the Dmax turned out to be 75%. Besides, in experiment [2], it took 14 nM to reach half-maximal degradation (DC50) and the Dmax came out at 99%.
Regarding `COc1nc(N2CCN(CC3CCN(c4ccc(N5CCCC(c6ccc(Cl)c7c(C#N)c[nH]c67)C5)cc4)CC3)CC2)cc2c1C(=O)N(C1CCC(=O)NC1=O)C2` (single isomer, unassigned) [Example 92, 4-Chloro-7-[(3S*)-1-{4-[4-({4-[2-(2,6-dioxopiperidin-3-yl)-4-methoxy-3-oxo-2,3-dihydro-1H-pyrrolo[3,4-c]pyridin-6-yl]piperazin-1-yl}methyl)piperidin-1-yl]phenyl}piperidin-3-yl]-1H-indole-3-carbonitrile], in experiment [1], the “LNCaP AR (L702H) Degradation Dmax” value came to 100%. Moreover, the “LNCaP AR Degradation Dmax” value in experiment [2] is on record as 100%.
In the case of `N#Cc1c[nH]c2c(N3CCCC(c4ccc(N5CCC(CN6CCC(n7ccc8c(N9CCC(=O)NC9=O)cccc87)CC6)CC5)cn4)C3)ccc(Cl)c12` (single isomer, unassigned) [Example 65, 4-Chloro-7-[(3R*)-3-{5-[4-({4-[4-(2,4-dioxo-1,3-diazinan-1-yl)-1H-indol-1-yl]piperidin-1-yl}methyl)piperidin-1-yl]pyridin-2-yl}piperidin-1-yl]-1H-indole-3-carbonitrile], the DC50 in experiment [1] stood at 798 nM; in experiment [2] it was 9 nM. Moreover, the Dmax in experiment [1] is 78%; in experiment [2], 96%.

(Values after US20260274832A1, “COMPOUNDS AND THEIR USE IN TREATING CANCER” (ASTRAZENECA AB, priority 2023, published 2026).)
